Assays:
rat [1] = details: Chronic toxicity; sprague dawley; Oral; Gavage/Intubation; dose end: 6 month; group: systemic; systemic / clinical chemistry / sodium / sodium + systemic / clinical chemistry / bilirubin / total bilirubin + systemic / clinical …
rat [2] = details: Fertility (Segment I), sprague dawley, Oral, Gavage/Intubation, dose end: 7 GD
rat [3] = details: Fertility (Segment I), sprague dawley, Oral, Gavage/Intubation, dose end: 7 GD; remark: listed apart in the source
rat [4] = details: Prenatal developmental toxicity study, sprague dawley, Oral, Gavage/Intubation, dose end: 17 GD, group: maternal
rabbit [5] = details: Prenatal developmental toxicity study; new zealand white; Oral; Gavage/Intubation; dose end: 19 GD; group: maternal; systemic / in life observation / body weight / body weight gain
rat [6] = details: Sub-acute repeat dose toxicity, sprague dawley, Oral, Gavage/Intubation, dose end: 31 day, group: systemic
rat [7] = details: Fertility (Segment I), sprague dawley, Oral, Gavage/Intubation, dose end: 2 week, group: parental
rat [8] = details: Prenatal developmental toxicity study, sprague dawley, Oral, Gavage/Intubation, dose end: 17 GD
dog = details: Sub-acute repeat dose toxicity; beagle; Oral; Capsule; dose end: 1 month; group: systemic; systemic / clinical chemistry / triglycerides / triglycerides
rabbit [9] = details: Prenatal developmental toxicity study; new zealand white; Oral; Gavage/Intubation; dose end: 19 GD; group: maternal; systemic / in life observation / body weight / body weight + systemic / in life observation / body weight / body weight gain + systemic / in…
mouse [10] = details: Subchronic oral toxicity in rodents, b6c3f1, Feed, dose end: 13 week, group: systemic
rat [11] = details: Subchronic oral toxicity in rodents, fischer, Feed, dose end: 13 week, group: systemic
mouse [12] = details: Carcinogenicity, b6c3f1, Oral, Feed, dose end: 103 week, group: systemic
rat [13] = details: Carcinogenicity, fischer, Oral, Feed, dose end: 103 week, group: systemic
mouse [14] = details: Prenatal developmental toxicity study, CD-1, Dermal, Topical, dose end: 13 GD, group: maternal
rabbit [15] = details: Prenatal developmental toxicity study, Dermal, Topical, dose end: 16 GD, group: maternal
[16] = group: maternal, reproductive / reproductive performance / estrous cycle / abnormal + reproductive / reproductive performance / estrous cycle / corpora lutea…
[17] = group: parental, systemic / in life observation / clinical signs / fur (altered appearance) + systemic / in life observation / clinical signs / salivation
[18] = group: parental, systemic / in life observation / clinical signs / fur (altered appearance) + systemic / in life observation / clinical signs / salivation + …
[19] = group: parental, systemic / in life observation / clinical signs / piloerection
[20] = group: parental, systemic / in life observation / clinical signs / piloerection + systemic / in life observation / body weight / body weight + systemic / in …
[21] = reproductive / reproductive performance / postimplantation loss / postimplantation loss + systemic / in life observation / body weight / …
[22] = systemic / clinical chemistry / albumin / albumin + systemic / clinical chemistry / phosphorus / phosphorus + systemic / clinical chemistry…
[23] = systemic / hematology / reticulocyte / reticulocyte + systemic / pathology microscopic / lung / histiocytosis + systemic / hematology / …
[24] = systemic / in life observation / body weight / body weight + systemic / in life observation / body weight / body weight gain + systemic / in…
[25] = group: developmental, systemic / in life observation / body weight / fetal weight
[26] = group: maternal, systemic / in life observation / clinical signs / piloerection
[27] = systemic / in life observation / mortality / mortality + systemic / pathology microscopic / adrenal gland / vacuolization cytoplasmic + …
[28] = systemic / pathology microscopic / uterus / hyperplasia
[29] = systemic / in life observation / body weight / body weight + systemic / pathology microscopic / bone / osteopetrosis + systemic / pathology …
[30] = systemic / pathology microscopic / bone / osteopetrosis + systemic / in life observation / body weight / body weight
[31] = systemic / pathology microscopic / bone marrow / myelofibrosis + systemic / pathology microscopic / mammary gland / cyst + systemic / …
[32] = systemic / pathology microscopic / liver / adenoma + systemic / pathology microscopic / pituitary gland / adenoma + systemic / pathology …
[33] = systemic / in life observation / body weight / body weight gain
[34] = systemic / in life observation / body weight / body weight gain + systemic / pathology microscopic / eye / cataract + systemic / pathology …
[35] = systemic / in life observation / body weight / body weight gain + systemic / in life observation / clinical signs / erythema + systemic / in…

Q: Which results are given for `COc1ccc2cc(S(=O)(=O)N[C@H](CC(=O)N[C@H](Cc3ccc(CN4[C@H](C)CCC[C@@H]4C)cc3)C(=O)N(C)C(C)C)c3ccc4c(c3)OCO4)ccc2c1.Cl`?
A: LEL (rat [1]): 10 mg/kg/day; LOAEL (rat [1]): > 100 mg/kg/day; NEL (rat [1]): < 10 mg/kg/day; NOAEL (rat [1]): ≥ 100 mg/kg/day; LEL (rat [2]; [16]): 180 mg/kg/day; LOAEL (rat [2]; [16]): > 180 mg/kg/day; NEL (rat [2]; [16]): 60 mg/kg/day; NOAEL (rat [2]; [16]): ≥ 180 mg/kg/day; LEL (rat [2]; [17]): 20 mg/kg/day; NEL (rat [2]; [17]): < 20 mg/kg/day; LOAEL (rat [2]; [18]): > 180 mg/kg/day; NOAEL (rat [2]; [18]): ≥ 180 mg/kg/day; LEL (rat [3]; [16]): 180 mg/kg/day; LOAEL (rat [3]; [16]): 180 mg/kg/day; NEL (rat [3]; [16]): 60 mg/kg/day; NOAEL (rat [3]; [16]): 60 mg/kg/day; LEL (rat [3]; [19]): 20 mg/kg/day; NEL (rat [3]; [19]): < 20 mg/kg/day; LOAEL (rat [3]; [20]): 180 mg/kg/day; NOAEL (rat [3]; [20]): 60 mg/kg/day; LEL (rat [4]; reproductive / reproductive performance / postimplantation loss / postimplantation loss): 60 mg/kg/day; LOAEL (rat [4]; [21]): > 180 mg/kg/day; NEL (rat [4]; [21]): 20 mg/kg/day; NOAEL (rat [4]; [21]): ≥ 180 mg/kg/day; LEL (rabbit [5]): 120 mg/kg/day; LOAEL (rabbit [5]): > 120 mg/kg/day; NEL (rabbit [5]): 60 mg/kg/day; NOAEL (rabbit [5]): ≥ 120 mg/kg/day; LOAEL (rat [6]; [22]): 60 mg/kg/day; NOAEL (rat [6]; [22]): 20 mg/kg/day; LEL (rat [6]; [23]): 20 mg/kg/day; NEL (rat [6]; [23]): < 20 mg/kg/day; LOAEL (rat [7]; [24]): 150 mg/kg/day; NEL (rat [7]; [24]): 20 mg/kg/day; NOAEL (rat [7]; [24]): 60 mg/kg/day; LEL (rat [7]; systemic / in life observation / clinical signs / salivation): 60 mg/kg/day; LEL (rat [8]; [25]): 120 mg/kg/day; LOAEL (rat [8]; [25]): 120 mg/kg/day; NEL (rat [8]; [25]): 60 mg/kg/day; NOAEL (rat [8]; [25]): 60 mg/kg/day; LEL (rat [8]; [26]): 30 mg/kg/day; NEL (rat [8]; [26]): < 30 mg/kg/day; LOAEL (rat [8]; group: maternal, systemic / in life observation / clinical signs / piloerection + systemic / in life observation / food consumption / food consumption): 60 mg/kg/day; NOAEL (rat [8]; group: maternal, systemic / in life observation / clinical signs / piloerection + systemic / in life observation / food consumption / food consumption + …): 30 mg/kg/day; LEL (dog): 10 mg/kg/day; LOAEL (dog): 10 mg/kg/day; NEL (dog): < 10 mg/kg/day; NOAEL (dog): < 10 mg/kg/day; LEL (rabbit [9]): 100 mg/kg/day; LOAEL (rabbit [9]): 100 mg/kg/day; NEL (rabbit [9]): 50 mg/kg/day; NOAEL (rabbit [9]): 50 mg/kg/day

Q: `C[C@H]1CCCC(=O)CCC/C=C/c2cc(O)cc(O)c2C(=O)O1` [Zearalenone] was tested. Which LOAEL (mouse [10]; [27]) did it give?
A: > 450 mg/kg/day

Q: And the NOAEL (mouse [10]; [27])?
A: ≥ 450 mg/kg/day

Q: What about the LEL (mouse [10]; [28]) of the same compound?
A: 4.5 mg/kg/day

Q: What about the NEL (mouse [10]; [28]) of the same compound?
A: < 4.5 mg/kg/day

Q: What about the LOAEL (rat [11]; [29]) of the same compound?
A: > 150 mg/kg/day

Q: What about the NOAEL (rat [11]; [29]) of the same compound?
A: ≥ 150 mg/kg/day

Q: And the LEL (rat [11]; [30])?
A: 1.5 mg/kg/day

Q: What about the NEL (rat [11]; [30]) of the same compound?
A: < 1.5 mg/kg/day

Q: What about the LEL (mouse [12]; [31]) of the same compound?
A: 7.5 mg/kg/day

Q: What about the NEL (mouse [12]; [31]) of the same compound?
A: < 7.5 mg/kg/day

Q: And the LOAEL (mouse [12]; [32])?
A: > 15 mg/kg/day

Q: And the NOAEL (mouse [12]; [32])?
A: ≥ 15 mg/kg/day

Q: What about the LOAEL (rat [13]; [33]) of the same compound?
A: 2.5 mg/kg/day

Q: What about the LEL (rat [13]; [34]) of the same compound?
A: 1.25 mg/kg/day

Q: What about the NEL (rat [13]; [34]) of the same compound?
A: < 1.25 mg/kg/day

Q: What about the NOAEL (rat [13]; [34]) of the same compound?
A: 1.25 mg/kg/day

Q: With `CCCCCCCCCCC(C)c1ccc(S(=O)(=O)O)cc1` (stereo unspecified) [Alkylbenzenesulfonate, linear] as the compound, how does the LEL (mouse [14]; reproductive / offspring survival early / dead fetuses / dead fetuses + systemic / in life observation / clinical signs / irritability) read?
A: 50 mg/kg/day

Q: What about the LOAEL (mouse [14]; systemic / in life observation / body weight / body weight gain + systemic / in life observation / clinical signs / erythema + reproductive…) of the same compound?
A: 500 mg/kg/day

Q: What about the NEL (mouse [14]; [35]) of the same compound?
A: 5 mg/kg/day

Q: What about the NOAEL (mouse [14]; [35]) of the same compound?
A: 50 mg/kg/day

Q: What about the LEL (rabbit [15]; [33]) of the same compound?
A: 9 mg/kg/day

Q: And the LOAEL (rabbit [15]; [35])?
A: > 90 mg/kg/day

Q: And the NEL (rabbit [15]; [35])?
A: 0.9 mg/kg/day

Q: And the NOAEL (rabbit [15]; [35])?
A: ≥ 90 mg/kg/day
